Literature values as cited in patent US20210299202A1, “FORMULATION OF C[…]” (CARDINAL ADVISORY LIMITED, priority 2018, published 2021).

Experiments:
[1] = smoked, pulmonary absorption
[2] = oral ingestion

For CCCCCc1cc(O)c2c(c1)OC(C)(C)[C@@H]1CCC(C)=C[C@@H]21 [THC, delta-9-tetrahydrocannabinol], the “time to peak plasma THC concentration” value [1] is listed as 6 to 10 min and the “time to peak plasma concentration” value [2] is listed as 2 to 6 h.
